Assay results reported in patent US10801077B2, “Influenza A virus variants” (Vertex Pharmaceuticals Incorporated, priority 2014, dated 2020).

Key:
[1] = system: A/Puerto Rico/8/34 (A/H1N1) influenza virus isolates; type: cell-based
[2] = system: A/California/07/2009 (A/H1N1) influenza virus isolates; type: cell-based

CC(C)(C)[C@@H](CC(=O)O)Nc1nc(-c2c[nH]c3ncc(F)cc23)ncc1F [Compound 1]
EC50 shift [1]: 286 fold
EC50 shift [2]: 500 fold
